Assay results as given in patent publication US20150087622A1, “NEW METHOD OF USE OF A PESTICIDE” (SYNGENTA PARTICIPATIONS AG, priority 2012, published 2015).
Like-named read-outs stand apart in the source and are kept apart here.

Tests used:
Diabrotica balteata = assay: Transovarial effects on Diabrotica balteata adults fed on sprayed bean plants (% egg mortality); format: in vivo; settings: for mortality at 10 ppm / mortality at 25 ppm / mortality at 50 ppm: Diabrotica balteata; for Transovarial effects on treated adults of Diabrotica balteata: at the used dose rates
Experimental: The following IGRs in Table 1 were tested for their transovarial effects on Diabrotica balteata by observing percentage egg mortality.
Bean plants (Phaseolus vulgaris, var. Amata) were treated in an automatic spray chamber (ARO-1) with around 500 l/ha. After drying of the spray deposits, plants were placed in gauze cages and infested with newly hatched (0-24 h old) Diabrotica balteata adults. After seven days, treated plants were removed and replaced by non-treated plants. From day seven to day 38 eggs were collected in three-day intervals, counted and checked on number of hatched larvae (% egg mortality). Percentage egg mortality was calculated as the number of unhatched eggs per total number of eggs laid.

Spodoptera frugiperda = assay: Foliar spray application on cotton, larval mortality of Spodoptera frugiperda; format: in vivo; settings: 4 DAT (days after treatment)
Text: For example on both Spodoptera frugiperda and Plutella xylostella similar activities were obtained for the same rates: […]

Colorado potato beetle = settings: cited from earlier work
[1] = egg laying period 1, read-out: % egg mortality: on egg laying period 1
[2] = egg laying period 2, read-out: % egg mortality: on egg laying period 2
[3] = egg laying period 3, read-out: % egg mortality: on egg laying period 3
[4] = egg laying period 4, read-out: % egg mortality: on egg laying period 4
[5] = egg laying period 5, read-out: % egg mortality: on egg laying period 5
[6] = egg laying period 6, read-out: % egg mortality: on egg laying period 6
[7] = egg laying period 7, read-out: % egg mortality: on egg laying period 7
[8] = egg laying period 8, read-out: % egg mortality: on egg laying period 8
[9] = egg laying period 9, read-out: % egg mortality: on egg laying period 9
[10] = egg laying period 10, read-out: % egg mortality: on egg laying period 10
[11] = egg laying period 11, read-out: % egg mortality: on egg laying period 11
[12] = egg laying period 12, read-out: % egg mortality: on egg laying period 12

In the case of `O=C(NC(=O)c1c(F)cccc1F)Nc1ccc(OC(F)(F)C(F)OC(F)(F)F)c(Cl)c1` (single isomer, unassigned; (+)) [Rimon, (+)-I-[3-chloro-4-(1,1,2-trifluoro-2-trifluoromethoxyethoxy)phenyl]-3-(2,6-difluorobenzoyl)urea], the “total number of sterilised (unhatched) eggs, considered over the whole test period” value (“total number … over the whole test period” for short) (Diabrotica balteata; 5 g AI ha^-1) is reported as “≈ 25%”, the “total number … over the whole test period” value (Diabrotica balteata; 12.5 g AI ha^-1) is reported as “≈ 25%” and the “total number … over the whole test period” value (Diabrotica balteata; 25 g AI ha^-1) is reported as “≈ 90%”. The “days of effect (egg hatch inhibition) after a single foliar treatment” value (Diabrotica balteata; 50 g AI/ha during adult feeding on the crop plant) was “up to 21 days”, the mortality at 10 ppm (Diabrotica balteata; [1]) was 100% and the mortality at 10 ppm (Diabrotica balteata; [2]) was 100%. For the same molecule, the mortality at 10 ppm (Diabrotica balteata; [3]) was 99%, the mortality at 10 ppm (Diabrotica balteata; [4]) was 50% and the mortality at 10 ppm (Diabrotica balteata; [5]) was 10%. For the same molecule, the mortality at 10 ppm (Diabrotica balteata; [6]) was 13%, the mortality at 10 ppm (Diabrotica balteata; [7]) was 10% and the mortality at 10 ppm (Diabrotica balteata; [8]) was 11%. For the same molecule, the mortality at 10 ppm (Diabrotica balteata; [9]) was 18%, the mortality at 10 ppm (Diabrotica balteata; [10]) was 9% and the mortality at 10 ppm (Diabrotica balteata; [11]) was 9%. The mortality at 10 ppm (Diabrotica balteata; [12]) was 12%, the mortality at 25 ppm (Diabrotica balteata; [1]) was 100% and the mortality at 25 ppm (Diabrotica balteata; [2]) was 100%. It also gave a mortality at 25 ppm (Diabrotica balteata; [3]) of 100%, a mortality at 25 ppm (Diabrotica balteata; [4]) of 93% and a mortality at 25 ppm (Diabrotica balteata; [6]) of 25%. The mortality at 25 ppm (Diabrotica balteata; [7]) was 14%, the mortality at 25 ppm (Diabrotica balteata; [9]) was 22% and the mortality at 25 ppm (Diabrotica balteata; [10]) was 7%. It also gave a mortality at 25 ppm (Diabrotica balteata; [11]) of 0%, a mortality at 25 ppm (Diabrotica balteata; [12]) of 4% and a mortality at 50 ppm (Diabrotica balteata; [2]) of 100%. For the same molecule, the mortality at 50 ppm (Diabrotica balteata; [3]) was 100%, the mortality at 50 ppm (Diabrotica balteata; [4]) was 100% and the mortality at 50 ppm (Diabrotica balteata; [5]) was 100%. It also gave a mortality at 50 ppm (Diabrotica balteata; [6]) of 100%, a mortality at 50 ppm (Diabrotica balteata; [7]) of 100% and a mortality at 50 ppm (Diabrotica balteata; [8]) of 100%. For the same molecule, the mortality at 50 ppm (Diabrotica balteata; [9]) was 92%, the mortality at 50 ppm (Diabrotica balteata; [10]) was 29% and the mortality at 50 ppm (Diabrotica balteata; [11]) was 96%. The mortality at 50 ppm (Diabrotica balteata; [12]) was 41%, the “Spray interval” value (Diabrotica balteata; Rate 5 g AI/ha) was 7 days and the “Spray interval” value (Diabrotica balteata; Rate 12.5 g AI/ha) was 10 days. The “Spray interval” value (Diabrotica balteata; Rate 25 g AI/ha) was 21 days, the “rank for transovarial activity on Diabrotica balteata” value (Diabrotica balteata; among the IGRs tested) was “by far the best compound” and the “Transovarial effects on treated adults of Diabrotica balteata” value (from here on “Transovarial effects on treated adults”) (Diabrotica balteata) was “Transovarial effects can be observed”. For the same molecule, the LC50 (Spodoptera frugiperda) was “LC50 = 1.1 ppm”, the “ability to economically stop egg hatching in Colorado potato beetle” value (Colorado potato beetle; 25 g AI ha^-1 (Cutler et al.)) was “insufficient” and the “viability of Colorado potato beetle eggs” value (Colorado potato beetle; adults feeding on novaluron-treated potato leaves, 87 g AI ha^-1 (Alyokhin et al.)) was “reduced viability”. For the same molecule, the “time of feeding on untreated leaves after which the effect reverses” value (Colorado potato beetle; after 87 g AI ha^-1 (Alyokhin et al.)) was 48 to 96 h.
With `O=C(NC(=O)c1c(F)cccc1F)Nc1cc(Cl)c(OC(F)(F)C(F)C(F)(F)F)cc1Cl` (centres unmarked) [Match, Lufenuron] the “total number … over the whole test period” value (Diabrotica balteata; 5 g AI ha^-1) was ~20%, the “total number … over the whole test period” value (Diabrotica balteata; 12.5 g AI ha^-1) was “≈ 25%” and the “total number … over the whole test period” value (Diabrotica balteata; 25 g AI ha^-1) was “≈ 25%”. It also gave a mortality at 10 ppm (Diabrotica balteata; [1]) of 100%, a mortality at 10 ppm (Diabrotica balteata; [2]) of 100% and a mortality at 10 ppm (Diabrotica balteata; [3]) of 73%. The mortality at 10 ppm (Diabrotica balteata; [4]) was 17%, the mortality at 10 ppm (Diabrotica balteata; [5]) was 8% and the mortality at 10 ppm (Diabrotica balteata; [6]) was 9%. The mortality at 10 ppm (Diabrotica balteata; [7]) was 12%, the mortality at 10 ppm (Diabrotica balteata; [8]) was 8% and the mortality at 25 ppm (Diabrotica balteata; [1]) was 100%. It also gave a mortality at 25 ppm (Diabrotica balteata; [2]) of 100%, a mortality at 25 ppm (Diabrotica balteata; [3]) of 85% and a mortality at 25 ppm (Diabrotica balteata; [4]) of 15%. The mortality at 25 ppm (Diabrotica balteata; [6]) was 8%, the mortality at 25 ppm (Diabrotica balteata; [7]) was 9% and the mortality at 50 ppm (Diabrotica balteata; [2]) was 100%. The mortality at 50 ppm (Diabrotica balteata; [3]) was 96%, the mortality at 50 ppm (Diabrotica balteata; [4]) was 50% and the mortality at 50 ppm (Diabrotica balteata; [5]) was 40%. For the same molecule, the mortality at 50 ppm (Diabrotica balteata; [6]) was 9%, the mortality at 50 ppm (Diabrotica balteata; [7]) was 8% and the mortality at 50 ppm (Diabrotica balteata; [8]) was 8%. For the same molecule, the “Spray interval” value (Diabrotica balteata; Rate 5 g AI/ha) was 5 days, the “Spray interval” value (Diabrotica balteata; Rate 12.5 g AI/ha) was 7 days and the “Spray interval” value (Diabrotica balteata; Rate 25 g AI/ha) was 7 days. The “Transovarial effects on treated adults” value (Diabrotica balteata) was “Transovarial effects can be observed” and the LC50 (Spodoptera frugiperda) was “LC50 = 1 ppm”.
Work on `CCc1ccc(C(=O)NN(C(=O)c2cc(C)cc(C)c2)C(C)(C)C)cc1` [Mimic, Tebufenozide] yielded a mortality at 10 ppm (Diabrotica balteata; [1]) of 7%, a mortality at 10 ppm (Diabrotica balteata; [2]) of 9% and a mortality at 10 ppm (Diabrotica balteata; [3]) of 8%. The mortality at 10 ppm (Diabrotica balteata; [4]) was 11%, the mortality at 25 ppm (Diabrotica balteata; [1]) was 9% and the mortality at 25 ppm (Diabrotica balteata; [2]) was 13%. It also gave a mortality at 25 ppm (Diabrotica balteata; [3]) of 9%, a mortality at 25 ppm (Diabrotica balteata; [4]) of 10% and a mortality at 50 ppm (Diabrotica balteata; [2]) of 10%. For the same molecule, the mortality at 50 ppm (Diabrotica balteata; [3]) was 10%, the mortality at 50 ppm (Diabrotica balteata; [4]) was 13% and the “Transovarial effects on treated adults” value (Diabrotica balteata) was “transovarially inactive”.
In the case of `O=C(NC(=O)c1c(F)cccc1F)Nc1cc(Cl)c(F)c(Cl)c1F` [Nomolt, Teflubenzuron], the mortality at 10 ppm (Diabrotica balteata; [1]) is reported as 40%, the mortality at 10 ppm (Diabrotica balteata; [2]) is reported as 15% and the mortality at 10 ppm (Diabrotica balteata; [3]) is reported as 7%. The mortality at 10 ppm (Diabrotica balteata; [4]) was 11%, the mortality at 10 ppm (Diabrotica balteata; [5]) was 8% and the mortality at 10 ppm (Diabrotica balteata; [6]) was 14%. It also gave a mortality at 25 ppm (Diabrotica balteata; [1]) of 76%, a mortality at 25 ppm (Diabrotica balteata; [2]) of 48% and a mortality at 25 ppm (Diabrotica balteata; [3]) of 34%. It also gave a mortality at 25 ppm (Diabrotica balteata; [4]) of 11%, a mortality at 25 ppm (Diabrotica balteata; [6]) of 13% and a mortality at 50 ppm (Diabrotica balteata; [2]) of 67%. It also gave a mortality at 50 ppm (Diabrotica balteata; [3]) of 14%, a mortality at 50 ppm (Diabrotica balteata; [4]) of 11% and a mortality at 50 ppm (Diabrotica balteata; [5]) of 13%. For the same molecule, the mortality at 50 ppm (Diabrotica balteata; [6]) was 10%, the “Spray interval (days)” value (Diabrotica balteata; Rate 5 g AI/ha) was “Insufficient” and the “Spray interval (days)” value (Diabrotica balteata; Rate 12.5 g AI/ha) was “Insufficient”. The “Spray interval” value (Diabrotica balteata; Rate 25 g AI/ha) was 3 days and the “Transovarial effects on treated adults” value (Diabrotica balteata) was “Transovarial effects can be observed”.
